Earlier results as cited in patent EP3959200B1, “NEW TRIAZOLE AND TRIAZOLOTHIADIAZINE DERIVATIVES EXERTING CYTOTOXIC AND APOPTOTIC EFFECTS ON A549 CELLS THROUGH AKT INHIBITION” (Anadolu Universitesi, priority 2020, dated 2022).

Key:
[1] = system: leukemia (MOLT-4) cell line; details: cited from earlier work
[2] = system: kidney cancer (OU-31) cell line; parameters: concentration or dose not given beside the values; details: cited from earlier work
[3] = system: K562 cells; details: cited from earlier work
[4] = system: PC-3 cells; details: cited from earlier work
[5] = system: A549; details: cited from earlier work
[6] = biological target: alkaline phosphatase (ALP) enzyme; details: cited from earlier work
[7] = system: 60 cell lines derived from leukemia, non-small cell lung cancer, skin, ovarian, prostate and breast cancers; details: all cancer types tested; cited from earlier work
[8] = system: human breast cancer (MCF-7); details: cited from earlier work
[9] = system: human lung cancer (A549); details: cited from earlier work
[10] = system: leukemia (CCRF-CEM, RPMI-8226 and SR), non-small cell lung cancer (HOP-92), melanoma (UACC-62) and kidney cancer (UO-31) cells; details: across CCRF-CEM, RPMI-8226, SR, HOP-92, UACC-62, UO-31; cited from earlier work
[11] = system: Huh7 cell line; details: cited from earlier work
[12] = system: normal fibroblast (WI38) cells; details: cited from earlier work
[13] = system: human gastric cancer (NUGC), human liver cancer (HA22T and HepG2), nasopharyngeal cancer (HONE1), human breast cancer (MCF); details: all other cancer cells tested except DLD1 cells; cited from earlier work
[14] = system: 60 cell lines derived from lung, colon, skin, kidney, ovarian, central nervous system and blood cancers; details: all cells tested; cited from earlier work

SMILES: O=C(CSc1nnc2n1N=C(c1ccc(Cl)cc1)CS2)c1ccc(F)cc1 [2-((6-(4-Chlorophenyl)-7H-[1,2,4]triazolo[3,4-b][1,3,4]thiadiazine-3-yl)thio-1-(4-fluorophenyl)ethanone]
- growth [1]: 49.82%
- growth [2]: 48.14%

SMILES: CC(=O)Nc1ccc(OCC2=NNC(SCC(=O)Nc3ccc(Br)cc3)N2Cc2ccccc2)cc1 (centres unmarked) [2-[(3-{[4-(acetylamino)phenoxy]methyl}-4-benzyl-4,5-dihydro-1H-1,2,4-triazole-5-yl)sulfanyl]-N-(4-bromophenyl)acetamide]
- IC50 [3]: 7.71 µM

SMILES: Cc1ccc(C(C)C)c(OCc2nnc(SCC(=O)Nc3ccc(S(N)(=O)=O)cc3)n2Cc2ccccc2)c1 [2-{ [3-[[5-Methyl-2-(propane-2-yl)phenoxy]methyl)-4-benzyl-4,5-dihydro-1H-1,2,4-triazole-5-yl]sulfanyl}-N-(4-sulfamoilphenyl)acetamide]
- IC50 [4]: 5.96 µM

SMILES: Cc1ccc(C(C)C)c(OCC2=NNC(SCC(=O)Nc3ccc(Cl)cc3)N2Cc2ccccc2)c1 (centres unmarked) [2-{[3-[[5-methyl-2-(propane-2-yl)phenoxy]methyl]-4-benzyl-4,5-dihydro-1H-1,2,4-triazole-5-yl]sulfanyl}-N-(4-chlorophenyl)acetamide]
- IC50 [5]: 7.9 µM

SMILES: O=c1oc2ccccc2cc1C1=Nn2c(nnc2-c2cc3ccccc3oc2=O)SC1 [3,3'-(7/7-[1,2,4]Triazolo[3,4-b][1,3,4]thiadiazine-3,6-diyl)-bis(2H-chromen-2-one)]
- IC50 [6]: 1.15 ± 1 µM

SMILES: Fc1cc(-c2nnc3n2N=C(c2ccc(Cl)cc2)CS3)c(Cl)cc1Cl [3-(2,4-Dichloro-5-fluorophenyl)-6-(4-chlorophenyl)-1,2,4-triazolo[3,4-b]-1,3,4-thiadiazine]
- GI50 [7]: 1.06 to 25.4 µM

SMILES: CC(C)(c1ccc(Cl)cc1)c1nnc2n1N=C(c1ccc(OC(F)(F)F)cc1)CS2 [3-(2-(4-chlorophenyl)propane-2-yl)-6-(4-(trifluoromethoxy)phenyl)-7H-[1,2,4]triazolo[3,4-b] [1,3,4]thiadiazine]
- IC50 [8]: 10.5 µM
- IC50 [9]: 18.2 µM

SMILES: OC(c1ccccc1)c1nnc(SCc2ccccc2)n1Cc1ccccc1 (centres unmarked) [4-Benzyl-3-(benzylthio)-5-[hydroxy(phenyl)methyl]-4H-1,2,4-triazole]
- antiproliferative activity [10]: 25-58%

SMILES: CCc1cccc2c3c([nH]c12)C(CC)(Cc1n[nH]c(=S)n1C)OCC3 (centres unmarked) [5-[(1,8-Diethyl-1,3,4,9-tetrahydropyrano[3,4-b]indole-1-yl)methyl]-4-methyl-2,4-dihydro-3H-1,2,4-triazole-3-thione]
- IC50 [11]: 4.29 µM

SMILES: c1ccc(C2=Nn3c(nnc3-c3ccncc3)SC2)cc1 [6-phenyl-3-(pyridine-4-yl)-7H-[1,2,4]triazolo[3,4-b][1,3,4]thiadiazine]
- IC50 [12]: > 10 µM
- IC50 [13]: < 0.8 µM

SMILES: Fc1cc(C2=Nn3c(COc4ccccc4Cl)nnc3SC2=Cc2ccc(Cl)cc2)c(Cl)cc1Cl [7-(4-chlorobenzylidene)-6-(2,4-dichloro-5-fluorophenyl)-3-((2-chlorophenoxy)methyl)-1,2,4-triazolo[3,4-b]-1,3,4-thiadiazine]
- GI50 [14]: < 10 µM
